Consider nine molecules from paper PMC6730544 (ACS infectious diseases, 2019).

Holding throughout (assay type): biochemical
In assay [1] the target is T1, LpxH (UDP-2,3-diacylglucosamine pyrophosphatase) (Escherichia coli, UniProt P43341). Put plainly: AaLpxE-coupled malachite green assay, residual activity at […].
Assay [2] has as its target T1, LpxH (UDP-2,3-diacylglucosamine pyrophosphatase). Nature of the assay: AaLpxE-coupled malachite green assay, dose-response.
The target is the same in assay [3]. Nature of the assay: AaLpxE-coupled malachite green assay, residual activity at […]. This is another data set of the same source.

The structures appear in SMILES notation.

T1 sequence (P43341 whole entry): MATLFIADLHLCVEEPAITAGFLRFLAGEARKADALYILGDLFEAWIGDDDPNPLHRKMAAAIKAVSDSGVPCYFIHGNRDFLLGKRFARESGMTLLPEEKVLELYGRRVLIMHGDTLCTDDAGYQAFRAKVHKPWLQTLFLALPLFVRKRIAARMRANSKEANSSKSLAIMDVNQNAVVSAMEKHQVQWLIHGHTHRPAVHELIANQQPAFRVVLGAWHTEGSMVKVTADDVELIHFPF

As for `O=C(O)CCC(=O)N1CCc2cc(S(=O)(=O)N3CCN(c4cccc(Br)c4)CC3)ccc21` [22b, JH-LPH-08], the “1 μM compound / Percentage Activity” value in assay [1] is 52 ± 11.

In the case of `COC(=O)CCC(=O)N1CCc2cc(S(=O)(=O)N3CCN(c4cccc(Br)c4)CC3)ccc21` [22a, JH-LPH-07], in assay [1], the “1 μM compound / Percentage Activity” value was 53 ± 11.

Take `CC(=O)N1CCc2cc(S(=O)(=O)N3CCN(c4cccc(C(F)(F)F)c4)CC3)ccc21` [AZ1]: the IC50 in assay [2] is 147 ± 2 nM.

With `CC(=O)N1CCc2cc(S(=O)(=O)N3CCN(c4ccccc4)CC3)ccc21` [3b, JH-LPH-09], the “10 μM compound / Percentage Activity” value in assay [3] was 32 ± 9.

For the molecule `CCc1cccc(N2CCN(S(=O)(=O)c3ccc4c(c3)CCN4C(C)=O)CC2)c1` [3c, JH-LPH-24], in assay [3], the “10 μM compound / Percentage Activity” value is 21 ± 2.

With `CC(=O)Nc1ccc(S(=O)(=O)N2CCN(c3cccc(C(F)(F)F)c3)CC2)cc1` [compound 11, JH-LPH-15], the activity at 10 µM in assay [3] (read-out: 10 μM compound / Percentage Activity) was 30 ± 11%.

Consider `CC(=O)N1CCc2cc(S(=O)(=O)N3CCN(c4cccc(Br)c4)CC3)ccc21` [3a, JH-LPH-06], for which the activity at 1 µM in assay [1] (read-out: 1 μM compound / Percentage Activity) was 26 ± 8%.

Take `CC(=O)N1CCc2cc(S(=O)(=O)N3CCN(c4cccc(-c5ccccc5)c4)CC3)ccc21` [3e, JH-LPH-25]: the “1 μM compound / Percentage Activity” value in assay [1] is reported as 45 ± 10.

Regarding `CC(=O)N1CCc2cc(S(=O)(=O)N3CCN(c4cccc(C(C)C)c4)CC3)ccc21` [3d, JH-LPH-26], in assay [3], the “10 μM compound / Percentage Activity” value is given as 29 ± 3.

As a reminder, the IC50 is the concentration needed to halve the response being measured.
